In US5621002A, “Prodrugs for enzyme mediated activation” (Behringwerke Aktiengesellschaft, priority 1993, dated 1997) one finds Km and Vmax data, which are given here for two molecules.

In series [1] the target is T1, antibody-β-glucuronidase fusion protein (Homo sapiens, UniProt P08236).
T1 construct: antibody part only targets
T1 sequence (P08236 23-651): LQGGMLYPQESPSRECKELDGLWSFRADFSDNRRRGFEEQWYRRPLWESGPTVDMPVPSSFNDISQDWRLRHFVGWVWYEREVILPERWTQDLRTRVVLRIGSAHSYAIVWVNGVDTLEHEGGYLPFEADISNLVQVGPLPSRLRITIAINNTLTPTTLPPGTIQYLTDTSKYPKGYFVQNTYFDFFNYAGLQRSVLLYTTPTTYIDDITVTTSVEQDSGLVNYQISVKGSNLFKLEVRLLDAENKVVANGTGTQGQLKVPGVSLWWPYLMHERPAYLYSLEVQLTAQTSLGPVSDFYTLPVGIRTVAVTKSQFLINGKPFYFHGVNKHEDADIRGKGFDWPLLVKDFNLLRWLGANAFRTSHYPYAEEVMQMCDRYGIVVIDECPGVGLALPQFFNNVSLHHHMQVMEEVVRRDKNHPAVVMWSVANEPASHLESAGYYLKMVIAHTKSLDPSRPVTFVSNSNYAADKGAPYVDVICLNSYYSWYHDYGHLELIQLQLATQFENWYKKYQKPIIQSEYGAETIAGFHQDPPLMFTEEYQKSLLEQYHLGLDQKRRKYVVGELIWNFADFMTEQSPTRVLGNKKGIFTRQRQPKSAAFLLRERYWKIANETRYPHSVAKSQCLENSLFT
The series is described as follows: Km and Vmax determination, enzymatic cleavage by fusion protein monitored by HPLC. The class given is biochemical. As to conditions: 100 mM phosphate buffer + 1 mg/ml BSA, pH 7.2, 37° C., substrate 10-10000 μM. The procedure:
(§1) Comparison of Km- and V max-values of natural and improved substrate for antibody β-glucuronidase fusion protein
(§2) For Km- and Vmax-determination 3'-N-[4-(beta-D-Glucuronyloxy)-3-nitro-benzyloxycarbonyl]-doxorubicin and prodrug A should be diluted in the range of 10-10000 μM in 100 mM phosphate buffer+1 mg/ml BSA, pH 7.2. Enzymatic cleavage should be done with constant amounts of fusion protein at 37° C. Cleavage can be monitored by HPLC analysis. Km- and Vmax-values can be calculated with the software program GraFit 2.0 (Erithacus Software Ltd.).
(§3) The HPLC apparatus consisted of an autosampler (Abimed, model 231), an automatic sample extraction system (AASP, Varian) equipped with minicartridges containing C 18 reversed phase silica gel (Analytichem), a gradient pump (Gynkotek, model 480), a fluorescence detector (Shimazdu RF 535, Excitation: 495 nm, Emission: 560 nm). Before sample injection the minicartridges were preconditioned with 2.5 ml methanol and 1.5 ml phosphate buffer, pH 6. Analytes retained on the reversed phase silica gel were then eluted by valve switching and connection of the minicartridges to the mobile phase. Chromatography was performed on reversed phase material (Nucleosil C 18, 5 μm particle size, 120 mm length, 4,5 mm I.D.) and gradient elution. Elution was done by a gradient composed of 2 components (A: 20 mM phosphate, pH 3, B: acetonitrile). […]

Substrate in series [2]: [H][C@]1(O[C@H]2C[C@H](NC(=O)OCc3ccc(O[C@@H]4O[C@H](C(=O)O)[C@@H](O)[C@H](O)[C@H]4O)c([N+](=O)[O-])c3)[C@H](O)[C@H](C)O2)C[C@](O)(C(=O)CO)Cc2c(O)c3c(c(O)c21)C(=O)c1c(OC)cccc1C3=O
The description is as above. Format: biochemical, human. As to conditions: other: 100 mM phosphate buffer + 1 mg/ml BSA, pH 7.2, 37° C., substrate 10-10000 μM. The procedure:
as §1, §2, §3

Usually Km stands for the concentration of substrate that gives half-maximal velocity. As for `COc1cccc2c1C(=O)c1c(O)c3c(c(O)c1C2=O)C[C@@](O)(C(=O)CO)C[C@@H]3O[C@H]1C[C@H](NC(=O)OCc2ccc(O[C@@H]3O[C@H]([C@H](O)C(=O)O)[C@H](O)[C@H]3O)c([N+](=O)[O-])c2)[C@H](O)[C@H](C)O1` [Prodrug A], in series [1], the Km was below 500 µM and the Vmax was ~ 0.635 nmol/μg/min.

B1: antibody-β-glucuronidase fusion protein (Homo sapiens) (protein)
chain: LQGGMLYPQESPSRECKELDGLWSFRADFSDNRRRGFEEQWYRRPLWESGPTVDMPVPSSFNDISQDWRLRHFVGWVWYEREVILPERWTQDLRTRVVLRIGSAHSYAIVWVNGVDTLEHEGGYLPFEADISNLVQVGPLPSRLRITIAINNTLTPTTLPPGTIQYLTDTSKYPKGYFVQNTYFDFFNYAGLQRSVLLYTTPTTYIDDITVTTSVEQDSGLVNYQISVKGSNLFKLEVRLLDAENKVVANGTGTQGQLKVPGVSLWWPYLMHERPAYLYSLEVQLTAQTSLGPVSDFYTLPVGIRTVAVTKSQFLINGKPFYFHGVNKHEDADIRGKGFDWPLLVKDFNLLRWLGANAFRTSHYPYAEEVMQMCDRYGIVVIDECPGVGLALPQFFNNVSLHHHMQVMEEVVRRDKNHPAVVMWSVANEPASHLESAGYYLKMVIAHTKSLDPSRPVTFVSNSNYAADKGAPYVDVICLNSYYSWYHDYGHLELIQLQLATQFENWYKKYQKPIIQSEYGAETIAGFHQDPPLMFTEEYQKSLLEQYHLGLDQKRRKYVVGELIWNFADFMTEQSPTRVLGNKKGIFTRQRQPKSAAFLLRERYWKIANETRYPHSVAKSQCLENSLFT
notes: antibody part only targets
As to B1, in series [2], the Km worked out at 1300 µM and the Vmax was determined as 0.635 nmol/µg/min.
